Results published in PubChem BioAssay AID248 (DTP/NCI, 2004).
Inconclusive results and toxic doses are left out.

Tested on: L1210 leukemia ip in BDF1 mice, survival T/C
Test: NCI In Vivo Anticancer Drug Screen. Data for tumor model L1210 Leukemia (intraperitoneal) in B6D2F1 (BDF1) mice
Details: endpoint: mean survival time, higher = longer survival
Summary of the method: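 Value reflects the ratio of survival in compound-treated mice to survival in vehicle-treated controls, with both groups carrying the same transplanted tumor.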

[1] = dose: 100.0 mg/kg/injection, schedule: Q04DX003 (ip), vehicle: saline with Tween-80
[2] = dose: 200.0 mg/kg/injection, schedule: Q04DX003 (ip), vehicle: saline with Tween-80
[3] = dose: 100.0 mg/kg/injection, schedule: Q04DX002 (ip), vehicle: Klucel (hydroxypropylcellulose) (HPC)
[4] = dose: 200.0 mg/kg/injection, schedule: Q04DX002 (ip), vehicle: Klucel (hydroxypropylcellulose) (HPC)
[5] = dose: 400.0 mg/kg/injection, schedule: Q04DX002 (ip), vehicle: Klucel (hydroxypropylcellulose) (HPC)
[6] = dose: 100.0 mg/kg/injection, schedule: Q01DX001 (ip), vehicle: carboxymethylcellulose (CMC)
[7] = dose: 200.0 mg/kg/injection, schedule: Q01DX001 (ip), vehicle: carboxymethylcellulose (CMC)
[8] = dose: 400.0 mg/kg/injection, schedule: Q01DX001 (ip), vehicle: carboxymethylcellulose (CMC)
[9] = dose: 100.0 mg/kg/injection, schedule: Q01DX001 (ip), vehicle: saline
[10] = dose: 200.0 mg/kg/injection, schedule: Q01DX001 (ip), vehicle: saline
[11] = dose: 400.0 mg/kg/injection, schedule: Q01DX001 (ip), vehicle: saline
[12] = dose: 100.0 mg/kg/injection, schedule: Q01DX001 (ip), vehicle: Klucel (hydroxypropylcellulose) (HPC)
[13] = dose: 200.0 mg/kg/injection, schedule: Q01DX001 (ip), vehicle: Klucel (hydroxypropylcellulose) (HPC)

## O=C(CCCN1CC=C(N2CCc3ccccc32)CC1)c1ccc(F)cc1
[1]
  T/C: 102 % of control
[2]
  T/C: 102 % of control

## ClC(Cl)(Cl)c1cccc(-c2nc(C(Cl)(Cl)Cl)nc(C(Cl)(Cl)Cl)n2)c1
[3]
  T/C: 106 % of control
[4]
  T/C: 90 % of control
[5]
  T/C: 100 % of control

## Cc1ccc(-n2ccnc2)c(N=Cc2ccc(N(CCCl)CCCl)cc2Cl)c1
[3]
  T/C: 102 % of control
[4]
  T/C: 102 % of control
[5]
  T/C: 102 % of control

## CCCCCCCC(C)NCCOC(=O)c1ccc(N)cc1 (stereo unspecified)
dose: 75.0 mg/kg/injection, schedule: Q01DX001 (ip), vehicle: other
  T/C: 117 % of control
dose: 150.0 mg/kg/injection, schedule: Q01DX001 (ip), vehicle: other
  T/C: 101 % of control

## Cc1oc2c(O)ccc(N=Nc3cccc([N+](=O)[O-])c3)c2c1C
dose: 200.0 mg/kg/injection, schedule: Q01DX009 (ip), vehicle: Klucel (hydroxypropylcellulose) (HPC)
  T/C: 93 % of control
dose: 400.0 mg/kg/injection, schedule: Q01DX009 (ip), vehicle: Klucel (hydroxypropylcellulose) (HPC)
  T/C: 90 % of control

## CNC(=S)N/N=C/C(CO)=N\NC(=S)NC
dose: 50.0 mg/kg/injection, schedule: Q01DX001 (ip), vehicle: carboxymethylcellulose (CMC)
  T/C: 101 % of control
[6]
  T/C: 103 % of control
[7]
  T/C: 112 % of control
[8]
  T/C: 97 % of control

## Cc1coc(NS(=O)(=O)c2ccc(N=Nc3c(N)nc(N)[nH]c3=O)cc2)c1C
[9]
  T/C: 109 % of control
[10]
  T/C: 102 % of control
[11]
  T/C: 105 % of control

## CCOC(=O)CN1CC(C)(C)N(CC(=O)OCC)CC1(C)C
[6]
  T/C: 93 % of control
[7]
  T/C: 93 % of control
[8]
  T/C: 104 % of control

## COc1ccc2c(c1)OC(C)(C)C(c1ccccc1)C2c1ccc(OCCN2CCCC2)cc1 (stereo unspecified)
[1]
  T/C: 119 % of control
[2]
  T/C: 94 % of control
dose: 400.0 mg/kg/injection, schedule: Q04DX003 (ip), vehicle: saline with Tween-80
  T/C: 95 % of control

## Cc1ccc(-n2c(O)c(N=Nc3ccccc3C)c(=O)n(-c3ccccc3)c2=S)cc1
[12]
  T/C: 94 % of control
[13]
  T/C: 104 % of control
dose: 400.0 mg/kg/injection, schedule: Q01DX001 (ip), vehicle: Klucel (hydroxypropylcellulose) (HPC)
  T/C: 99 % of control

## O=C(Nc1ccc([N+](=O)[O-])cc1)N(c1ccccc1)c1cc(N2CCOCC2)ccn1
[9]
  T/C: 91 % of control
[10]
  T/C: 91 % of control
[11]
  T/C: 88 % of control

## CCCCCOP(=O)(OCCCCC)C(c1ccccc1)c1ccccc1
dose: 100.0 mg/kg/injection, schedule: Q04DX002 (ip), vehicle: saline
  T/C: 100 % of control
dose: 200.0 mg/kg/injection, schedule: Q04DX002 (ip), vehicle: saline
  T/C: 100 % of control
dose: 400.0 mg/kg/injection, schedule: Q04DX002 (ip), vehicle: saline
  T/C: 96 % of control

## c1ccc([C]([Hg][C](=C(c2ccccc2)c2ccccc2)c2ccccc2)=C(c2ccccc2)c2ccccc2)cc1
dose: 50.0 mg/kg/injection, schedule: Q01DX001 (ip), vehicle: Klucel (hydroxypropylcellulose) (HPC)
  T/C: 95 % of control
[12]
  T/C: 88 % of control
[13]
  T/C: 90 % of control

## CCNc1nc(C)c2nc(C(=O)NCc3ccccc3)c(=O)n(CC)c2n1
[12]
  T/C: 94 % of control
[13]
  T/C: 94 % of control

## Nc1ccc2cc(S(=O)(=O)O)cc(S(=O)(=O)O)c2c1 (tested in a mixture with another compound)
dose: 80.0 mg/kg/injection, schedule: Q01DX Z (ip), vehicle: saline
  T/C: 97 % of control
dose: 170.0 mg/kg/injection, schedule: Q01DX Z (ip), vehicle: saline
  T/C: 96 % of control

## O=C(CBr)NCC(S)c1ccc(Cl)cc1 (stereo unspecified)
dose: 50.0 mg/kg/injection, schedule: Q01DX009 (ip), vehicle: Klucel (hydroxypropylcellulose) (HPC)
  T/C: 97 % of control
dose: 100.0 mg/kg/injection, schedule: Q01DX009 (ip), vehicle: Klucel (hydroxypropylcellulose) (HPC)
  T/C: 95 % of control
dose: 100.0 mg/kg/injection, schedule: Q04DX003 (ip), vehicle: Klucel (hydroxypropylcellulose) (HPC)
  T/C: 93 % of control
dose: 200.0 mg/kg/injection, schedule: Q04DX003 (ip), vehicle: Klucel (hydroxypropylcellulose) (HPC)
  T/C: 88 % of control
dose: 400.0 mg/kg/injection, schedule: Q04DX003 (ip), vehicle: Klucel (hydroxypropylcellulose) (HPC)
  T/C: 102 % of control

## OC/C=[CH]\[Sn]([c]1ccccc1)([c]1ccccc1)[c]1ccccc1
dose: 100.0 mg/kg/injection, schedule: Q04DX002 (ip), vehicle: saline with Tween-80
  T/C: 95 % of control
dose: 200.0 mg/kg/injection, schedule: Q04DX002 (ip), vehicle: saline with Tween-80
  T/C: 119 % of control
dose: 400.0 mg/kg/injection, schedule: Q04DX002 (ip), vehicle: saline with Tween-80
  T/C: 119 % of control

## CN1CCCN(C(=S)S)CC1
dose: 30.0 mg/kg/injection, schedule: Q01DX001 (ip), vehicle: saline
  T/C: 96 % of control
[9]
  T/C: 95 % of control
